Results taken from patent publication US9265253B2, “Use of macrocyclic picolinamides as fungicides” (DOW AGROSCIENCES LLC, priority 2013, dated 2016).
Read-outs that look alike come from different tables or passages of the source.

Tests used:
[1] = test system: Mycosphaerella graminicola; Anamorph: Septoria tritici; experiment: Leaf Blotch of Wheat (SEPTTR) disease control; type: in vivo; details: for pest or weed control at 100 ppm / pest or weed control at 121.5 g/ha: Zymoseptoria tritici
Protocol: (§1) Technical grades of materials were dissolved in acetone, which were then mixed with nine volumes of water containing 110 ppm Triton X-100. The fungicide solutions were applied onto wheat seedlings using an automated booth sprayer to run-off. All sprayed plants were allowed to air dry prior to further handling. All fungicides were evaluated using the aforementioned method for their activity vs. all target diseases. Wheat leaf blotch and brown rust activity were also evaluated using track spray applications, in which case the fungicides were formulated as EC formulations, containing 0.1% Trycol 5941 in the spray solutions. Wheat plants (variety Yuma) were grown from seed in a greenhouse in 50% mineral soil/50% soil-less Metro mix until the first leaf was fully emerged, with 7-10 seedlings per pot. These plants were inoculated with an aqueous spore suspension of Septoria tritici either prior to or after fungicide treatments. After inoculation the plants were kept in 100% relative humidity (one day in a dark dew chamber followed by two to three days in a lighted dew chamber at 20° C.) to permit spores to germinate and infect the leaf. The plants were then transferred to a greenhouse set at 20° C. for disease to develop. When disease symptoms were fully expressed on the 1st leaves of untreated plants, infection levels were assessed on a scale of 0 to 100 percent disease severity. Percent disease control was calculated using the ratio of disease severity on treated plants relative to untreated plants.

[2] = test system: Puccinia triticina; Synonym: Puccinia recondite f. Sp. Tritici; experiment: Wheat Brown Rust (PUCCRT) disease control; type: in vivo; details: for pest or weed control at 100 ppm / pest or weed control at 121.5 g/ha: Puccinia triticina, topical
Protocol: as §1, with “plants. Wheat plants (variety Yuma) were grown from seed in a greenhouse in 50% mineral soil/50% soil-less Metro mix until the first leaf was fully emerged, with 7-10 seedlings per pot. These plants were inoculated with an aqueous spore suspension of Puccinia triticina either prior to or after fungicide treatments. After inoculation the plants were kept in a dark dew room at 22° C. with 100% relative humidity overnight to permit spores to germinate and infect the leaf. The plants were then transferred to a greenhouse set at 24° C. for disease to develop. Fungicide formulation, application and disease assessment followed the procedures as described in the Example A.” for “plants.”

[3] = 24 h, 1 Day Protectant, rate 100 ppm, read-out: SEPTTR 1 DP disease control
[4] = 24 h, 1 Day Protectant, rate 121.5 g/H, read-out: SEPTTR 1 DP disease control
[5] = 72 h, 3 Day Curative, rate 100 ppm, read-out: SEPTTR 3 DC disease control
[6] = 72 h, 3 Day Curative, rate 121.5 g/H, read-out: SEPTTR 3 DC disease control
[7] = 24 h, 1 Day Protectant, rate 100 ppm, read-out: PUCCRT 1 DP disease control
[8] = 24 h, 1 Day Protectant, rate 121.5 g/H, read-out: PUCCRT 1 DP disease control
[9] = 72 h, 3 Day Curative, rate 100 ppm, read-out: PUCCRT 3 DC disease control
[10] = 72 h, 3 Day Curative, rate 121.5 g/H, read-out: PUCCRT 3 DC disease control

Row | Structure (SMILES) | pest or weed control at 100 ppm [1, 3] | pest or weed control at 121.5 g/ha [1, 4] | pest or weed control at 100 ppm [1, 5] | pest or weed control at 121.5 g/ha [1, 6] | pest or weed control at 100 ppm [2, 7] | pest or weed control at 121.5 g/ha [2, 8] | pest or weed control at 100 ppm [2, 9] | pest or weed control at 121.5 g/ha [2, 10] | SEPTTR 1 DP disease control ([1]; 1 Day Protectant, rate 100 ppm) | SEPTTR 3 DC disease control ([1]; 3 Day Curative, rate 100 ppm) | PUCCRT 1 DP disease control ([2]; 1 Day Protectant, rate 100 ppm) | pest or weed control at 100 ppm ([1]; 24 h, Wheat Leaf Blotch, 1 Day Protectant, rate 100 ppm (high volume application), read-out: Disease control SEPTTR 1 DP) | pest or weed control at 121.5 g/ha ([1]; 24 h, Wheat Leaf Blotch, 1 Day Protectant, rate 121.5 g/H (low volume application), read-out: Disease control SEPTTR 1 DP) | pest or weed control at 121.5 g/ha ([1]; 72 h, Wheat Leaf Blotch, 3 Day Curative, rate 121.5 g/H (low volume application), read-out: Disease control SEPTTR 3 DC) | pest or weed control at 100 ppm ([2]; 24 h, Wheat Brown Rust, 1 Day Protectant, rate 100 ppm (high volume application), read-out: Disease control PUCCRT 1 DP) | pest or weed control at 121.5 g/ha ([2]; 24 h, Wheat Brown Rust, 1 Day Protectant, rate 121.5 g/H (low volume application), read-out: Disease control PUCCRT 1 DP) | pest or weed control at 100 ppm ([2]; 72 h, Wheat Brown Rust, 3 Day Curative, rate 100 ppm (high volume application), read-out: Disease control PUCCRT 3 DC) | pest or weed control at 121.5 g/ha ([2]; 72 h, Wheat Brown Rust, 3 Day Curative, rate 121.5 g/H (low volume application), read-out: Disease control PUCCRT 3 DC)
1 | COc1ccnc(C(=O)N[C@H]2CCC[C@H](CCOc3ccccc3)[C@@H](OCC3CC3)[C@H](C)OC2=O)c1OCOC(C)=O [Compound F142] | 80 to 100% | 80 to 100% | 80 to 100% | 0 to 80% | 80 to 100% | 80 to 100% | 80 to 100% | 80 to 100% |  |  |  |  |  |  |  |  |  | 
2 | COc1ccnc(C(=O)N[C@H]2CCC[C@H](Cc3ccc(C)cc3)[C@@H](OCCCC(F)(F)F)[C@H](C)OC2=O)c1O [Compound F55] |  |  |  |  |  |  |  |  | A (80-100) | B (More than 0-Less than 80) | A (80-100) |  |  |  |  |  |  | 
3 | COc1ccnc(C(=O)N[C@H]2CCC[C@H](Cc3ccc(F)cc3F)[C@@H](OCc3ccccc3)[C@H](C)OC2=O)c1OCOC(C)=O [Compound F137] | 80 to 100% | 80 to 100% | 80 to 100% | 80 to 100% | 80 to 100% | 80 to 100% | 80 to 100% | 0 to 80% |  |  |  |  |  |  |  |  |  | 
4 | CCOCC(=O)OCOc1c(OC)ccnc1C(=O)N[C@H]1CCC[C@H](CCOCC2CC2)[C@@H](OCC2CC2)[C@H](C)OC1=O [Compound F191] |  |  |  |  |  |  |  |  |  |  |  | 80 to 100% | 0 to 80% | 0 to 80% | 80 to 100% | 80 to 100% | 80 to 100% | 80 to 100%
5 | COc1ccnc(C(=O)N[C@H]2CCC[C@H](Cc3ccccc3)[C@@H](OCC3CC3)[C@H](C)OC2=O)c1O [Compound F19] | 80 to 100% |  | 80 to 100% |  | 80 to 100% |  | 80 to 100% |  |  |  |  |  |  |  |  |  |  | 
6 | COc1ccnc(C(=O)N[C@H]2CCC[C@H](CCOCC3CC3)[C@@H](OCC3CC3)[C@H](C)OC2=O)c1OCOC(C)=O [Compound F140] | 80 to 100% | 0 to 80% | 0 to 80% | 0 to 80% | 80 to 100% | 80 to 100% | 80 to 100% | 80 to 100% |  |  |  |  |  |  |  |  |  | 
7 | COc1ccnc(C(=O)N[C@H]2CCC[C@H](Cc3ccc(C)cc3)[C@@H](OCCCC(F)(F)F)[C@H](C)OC2=O)c1O [Compound F10] | 80 to 100% | 80 to 100% |  | 80 to 100% | 80 to 100% | 80 to 100% | 80 to 100% | 0 to 80% |  | A (80-100) |  |  |  |  |  |  |  | 
8 | CCOCC(=O)OCOc1c(OC)ccnc1C(=O)N[C@H]1CCC[C@H](CCC(C)C)[C@@H](Oc2ccccc2)[C@H](C)OC1=O [Compound F158] | 80 to 100% | 80 to 100% | 80 to 100% | 80 to 100% | 80 to 100% | 80 to 100% | 80 to 100% | 0 to 80% |  |  |  |  |  |  |  |  |  | 
9 | COc1ccnc(C(=O)N[C@H]2CCC[C@H](CC3CCCCC3)[C@@H](OCC(C)C)[C@H](C)OC2=O)c1O [Compound F25] | 80 to 100% |  | 0 to 80% |  | 80 to 100% |  |  |  |  |  |  |  |  |  |  |  |  | 
10 | CCOCC(=O)OCOc1c(OC)ccnc1C(=O)N[C@H]1CCC[C@H](CCC(C)C)[C@@H](OC)[C@H](C)OC1=O [Compound F163] | 80 to 100% | 80 to 100% | 80 to 100% | 0 to 80% | 80 to 100% | 0 to 80% | 0 to 80% | 0 to 80% |  |  |  |  |  |  |  |  |  | 
11 | COc1ccnc(C(=O)N[C@H]2CCC[C@H](Cc3ccc(F)cc3)[C@@H](OC(=O)C3CCCC3)[C@H](C)OC2=O)c1O [Compound F16] | 80 to 100% |  | 0 to 80% |  | 80 to 100% |  | 0 to 80% |  |  |  |  |  |  |  |  |  |  | 
12 | CCOCC(=O)OCOc1c(OC)ccnc1C(=O)N[C@H]1CCC[C@H](CCC(C)C)[C@@H](OCC(C)C)[C@H](C)OC1=O [Compound F159] | 80 to 100% | 80 to 100% | 80 to 100% | 80 to 100% | 80 to 100% | 80 to 100% | 80 to 100% | 0 to 80% |  |  |  |  |  |  |  |  |  | 
13 | CCOCC(=O)OCOc1c(OC)ccnc1C(=O)N[C@H]1CCC[C@H](CC2CCCC2)[C@@H](Oc2ccccc2)[C@H](C)OC1=O [Compound F176] | 80 to 100% | 80 to 100% | 80 to 100% | 80 to 100% | 80 to 100% | 80 to 100% | 80 to 100% | 0 to 80% |  |  |  |  |  |  |  |  |  | 
14 | CCOCC(=O)OCOc1c(OC)ccnc1C(=O)N[C@H]1CCC[C@H](Cc2ccc(OC)cc2)[C@@H](OCC2CC2)[C@H](C)OC1=O [Compound F177] | 80 to 100% | 80 to 100% | 80 to 100% | 80 to 100% | 80 to 100% | 80 to 100% | 80 to 100% | 80 to 100% |  |  |  |  |  |  |  |  |  | 
15 | COc1ccnc(C(=O)N[C@H]2CCC[C@H](CCC(C)C)[C@@H](Oc3ccccc3)[C@H](C)OC2=O)c1OCOC(=O)C(C)C [Compound F147] | 80 to 100% | 80 to 100% | 80 to 100% | 80 to 100% | 80 to 100% | 80 to 100% | 80 to 100% | 0 to 80% |  |  |  |  |  |  |  |  |  | 
16 | CCCO[C@@H]1[C@@H](Cc2ccc(OC)cc2)CCC[C@H](NC(=O)c2nccc(OC)c2O)C(=O)O[C@H]1C [Compound F33] | 80 to 100% |  | 80 to 100% |  | 80 to 100% |  | 80 to 100% |  |  |  |  |  |  |  |  |  |  | 
17 | CCO[C@@H]1[C@@H](Cc2ccccc2)CCC[C@H](NC(=O)c2nccc(OC)c2OCOC(C)=O)C(=O)O[C@H]1C [Compound F111] |  | 80 to 100% |  | 80 to 100% |  | 80 to 100% |  | 80 to 100% |  |  |  |  |  |  |  |  |  | 
